Here are results for one compound from US10364233B2, “Piperidine derivative and methods of use thereof” (vTv Therapeutics LLC, priority 2016, dated 2019).

Like-named read-outs stand apart in the source and are kept apart here.

For test [1], the target named is sRAGE (S100b as the RAGE ligand) (Homo sapiens, UniProt Q15109). The test can be described thus: General binding assay: inhibition of sRAGE binding to plate-bound S100b. The following applies: n = 13, hydrochloride salt. How it is done: (§1) The following is one potential method for screening. S100b or β-amyloid (500 ng/100 μL/well) in 100 mM sodium bicarbonate/sodium carbonate buffer (pH 9.8) is loaded onto the wells of a NUNC Maxisorp flat bottom 96-well microtitre plate. The plate is incubated at 4° C. overnight. The wells are aspirated and treated with 50 mM imidazole buffer saline (pH 7.2) (with 5 mM CaCl2)/MgCl2) containing 1% bovine serum albumin (BSA) (300 μL/well) for 1 h at RT. The wells are aspirated.
(§2) The test compound is dissolved in nanopure water (concentration: 10-100 μM). DMSO may be used as co-solvent. 25 μL of test compound solution in 4% DMSO is added, along with 75 μL sRAGE (6 nM FAC) to each well and samples are incubated for 1 h at 37° C. The wells are washed several times with 155 mM NaCl pH 7.2 buffer saline and are soaked for several seconds between each wash.
(§3) Non-Radioactive Detection is Performed by Adding:
(§4) 10 μL Biotinylated goat F(ab′)2 Anti-mouse IgG. […]
(§5) 100 μL of complex is added to each well and incubation is allowed to proceed at rt for 1 h. […] The reaction is quenched with 10 μL of stop solution (0.5-1.0 N NaOH in 50% ethanol) and the absorbance is measured spectrophotometrically with a microplate reader at 405 nm. […]

Test [2] has as its system S100b mediated TNF release from THP-1 cells (RAGE signaling). The test can be described thus: Functional assay: inhibition of S100b mediated TNF release from THP-1 cells. The format is cell-based. The following applies: Homo sapiens; THP-1 cells stimulated with bovine S100b; TNF-alpha by ELISA after 24 hours; hydrochloride salt. How it is done: Previously the literature has cited that THP-1 cells in response to RAGE ligands secrete TNF alpha (Yeh C-H, et al. Diabetes. Vol. 50, June 2001, pp. 1495-1504). The following assay method may be used to identify compounds of Formula (I) or pharmaceutically acceptable salts thereof which are useful as antagonists of RAGE signaling.
The myeloid cell line, THP-1 (ATTC # TIB-202), is cultured in RPMI-1640 media (ATCC, Cat #30-2001) supplemented with fetal bovine serum to a final concentration of 10% by volume and Penicillin-Streptomycin (Gibco, Cat #0.15140-122). Alternatively, media may be formulated using RPMI 1640 (Bio-Whitaker #12-702F) supplemented with 2 mM L-glutamine (Gibco #12381-018) adjusted to contain 1.5 g/L sodium bicarbonate (Gibco #25080-094), 4.5 g/L glucose, 10 mM HEPES (Cellgro #25-060-L1) and 1.0 mM sodium pyruvate (Gibco #11360-070) and supplemented with 0.05 mM 2-mercaptoethanol, […] per ATCC instructions. During culture, the culture cells may be maintained at a density between 5×10^4 and 1×10^6 viable cells/mL. […]
The amount of TNF-alpha secreted by the THP-1 cells may be measured 24 hours after the addition of the stimulant proteins to the cell culture using a commercially available ELISA kit (R&D Systems, Minneapolis, Minn. # DY210). […] The plate may be read at 450 nm within 30 minutes. […]
(An ELISA detects its analyte on a solid surface through an enzyme-linked reagent.)

Test [3] addresses sRAGE (β-amyloid as the RAGE ligand) (Homo sapiens, UniProt Q15109). As to the kind of experiment: General binding assay: inhibition of sRAGE binding to plate-bound β-amyloid. The following applies: n = 11, hydrochloride salt. How it is done:
as §1, §2, §3, §4, §5

Sequence of UniProt Q15109 (Q15109 23-342 limits assumed): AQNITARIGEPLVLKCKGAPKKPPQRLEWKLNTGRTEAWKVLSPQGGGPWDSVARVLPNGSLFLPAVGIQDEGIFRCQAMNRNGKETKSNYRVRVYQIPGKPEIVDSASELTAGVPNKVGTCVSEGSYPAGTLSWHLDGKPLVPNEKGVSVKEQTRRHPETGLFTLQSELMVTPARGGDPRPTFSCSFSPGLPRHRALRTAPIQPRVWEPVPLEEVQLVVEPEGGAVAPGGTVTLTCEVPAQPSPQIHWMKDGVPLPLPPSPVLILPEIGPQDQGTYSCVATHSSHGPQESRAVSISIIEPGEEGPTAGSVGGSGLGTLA
Sequence of UniProt Q15109 (Q15109 23-342 limits assumed): as above

As to `Cc1nn(C2CCCCC2)c(C)c1S(=O)(=O)N1CCC(CN(CC(C)C)S(=O)(=O)c2ccc(CNCC3CCNCC3)cc2)(c2ccccc2)CC1` [compound of Formula (I), N-[1-(1-Cyclohexyl-3,5-dimethyl-1H-pyrazole-4-sulfonyl)-4-phenyl-piperidin-4-ylmethyl]-N-isobutyl-4-{[(piperidin-4-ylmethyl)-amino]-methyl}-benzenesulfonamide], the half-inhibitory concentration (IC50) (usually the concentration that gives 50% inhibition) in test [1] (average, read-out: IC50 (S100b) average) was 420 nM; in test [1] (range of individual determinations, read-out: IC50 (S100b)), 220 to 620 nM; in test [2] it was approximately 500 nM; in test [3] (average, read-out: IC50 (β-amyloid) average) it was 400 nM; in test [3] (range of individual determinations, read-out: IC50 (β-amyloid)) it was 270 to 600 nM.
